Test results from article PMC2981816, “Oxalyl retro-peptide gelators. Synthesis, gelation properties and stereochemical effects” (Beilstein Journal of Organic Chemistry, 2010).

Key:
Format in all cases: physicochemical
[1] = Gelation test: gelator effectiveness (Geff) and minimal gelation concentration in solvents and solvent mixtures
[2] = as above; parameters: key: sol.: soluble; ins.: insoluble; cr.: crystalline; [A]: gel/sol mixture; conditions: max. volume immobilized by 10 mg gelator, Table 3
Experimental: (§1) Gelation observed for selected gelator–solvent pairs is expressed by gelator effectiveness (Geff, mL) corresponding to the maximal volume of solvent that could be immobilized by 10 mg of the gelator (Table 1). […] However, 3a and 5a also gelled small to moderate volumes of EtOH and rac-2-octanol, whilst Leu incorporating 1a formed gels with the more lipophilic solvents, decalin and tetralin. […] Apparently, the retro-peptides incorporating aliphatic and aromatic amino acids are less versatile gelators compared to retro-peptides containing […] amino acid fragments. The latter points to the importance of intermolecular lipophilic interactions for the stabilization of gel assemblies being stronger in the case of identical amino acids either lipophilic or aromatic, and weaker for mixed aromatic-lipophilic amino acid fragments present in the gelator molecule.

[3] = as above; parameters: key: sol.: soluble; ins.: insoluble; cr.: crystallization; [A]: gel/sol mixture; conditions: max. volume immobilized by 10 mg gelator, Table 3
Experimental: as §1

[4] = as above; parameters: key to Gelator effectiveness (Geff): sol.: soluble; ins.: insoluble; cr.: crystallization; [A]: gel/sol mixture; conditions: for Gelation effectiveness (Geff): Table 3
Experimental: as §1

[5] = Concentration-dependent 1H NMR of toluene-d8 gel samples (self-assembly saturation point)
Source text: In the first case the oxalamide NH and Leu-NH protons were downfield shifted by 1.6 and 1.8 ppm, respectively, for a gelator concentration increase from 0.001–0.1 mol dm^−3. […] The monitored protons of (S,S)-1b are more strongly downfield shifted than the corresponding protons of (S,R)-1b for the same concentration range. Similar trends of NH and C*H concentration induced shifts are observed for (S,S)-1b and its racemate (S,S)-1b/(R,R)-1b toluene-d8 gels (Figure 6). Again the magnitudes of the NH and C*H concentration induced shifts are higher for the (S,S)-1b than for the racemate gel. […]
If the racemate were organized in the conglomerate as separate enantiomeric (S,S)-1b and (R,R)-1b assemblies, the magnitudes of the concentration induced shifts should be similar to those measured the for (S,S)-1b assemblies. […]
The discontinuous concentration induced shift curves obtained for (S,R)-1b diasteroisomer may indicate the presence of different assemblies at lower and higher gelator concentrations. It appears that the first saturation point is reached at a concentration around 0.03 mol dm^-3 and the second at 0.12 mol dm^−3, the latter corresponding nicely to the experimentally determined MGC of 0.116 mol dm^−3. […]

[6] = max. volume immobilized by 10 mg gelator, CH2Cl2, Table 2
[7] = max. volume immobilized by 10 mg gelator, CH3CN, Table 2
[8] = max. volume immobilized by 10 mg gelator, H2O/DMF mixture, given as volume + volume, Table 2
[9] = max. volume immobilized by 10 mg gelator, H2O/DMSO mixture, given as volume + volume, Table 2
[10] = max. volume immobilized by 10 mg gelator, H2O, Table 2
[11] = max. volume immobilized by 10 mg gelator, THF, Table 2
[12] = max. volume immobilized by 10 mg gelator, decalin, Table 2
[13] = max. volume immobilized by 10 mg gelator, p-xylene, Table 2
[14] = max. volume immobilized by 10 mg gelator, tetralin, Table 2
[15] = max. volume immobilized by 10 mg gelator, toluene, Table 2
[16] = max. volume immobilized by 10 mg gelator, H2O/DMF mixture, given as volume + volume
[17] = max. volume immobilized by 10 mg gelator, H2O/DMSO mixture, given as volume + volume
[18] = max. volume immobilized by 10 mg gelator, tetralin

Compound: O=C(N[C@H](C(=O)N[C@H](C(=O)O)c1ccccc1)c1ccccc1)C(=O)N[C@H](C(=O)N[C@H](C(=O)O)c1ccccc1)c1ccccc1 [3a, (S,S)-N,N'-Oxalyl-bis(phenylglycyl-phenylglycine)]
- solubility in water [1]: insoluble

Compound: NC(=O)[C@@H](NC(=O)[C@@H](NC(=O)C(=O)N[C@H](C(=O)N[C@H](C(N)=O)c1ccccc1)c1ccccc1)c1ccccc1)c1ccccc1 [3c, bis(PhgPhgNH2)]
- Gelation effectiveness (Geff) ([2]; H2O/DMF mixture, given as volume + volume): cr.
- Gelation effectiveness (Geff) ([2]; H2O/DMSO mixture, given as volume + volume): cr.
- Gelation effectiveness (Geff) ([3]; CH2Cl2): ins.
- Gelation effectiveness (Geff) ([3]; CH3CN): ins.
- Gelation effectiveness (Geff) ([3]; EtOH): ins.
- Gelation effectiveness (Geff) ([3]; H2O): ins.
- Gelation effectiveness (Geff) ([3]; THF): ins.
- Gelation effectiveness (Geff) ([3]; p-xylene): ins.
- Gelation effectiveness (Geff) ([3]; tetralin): ins.
- Gelation effectiveness (Geff) ([3]; toluene): ins.
- Gelation effectiveness (Geff) ([3]; ±2-octanol): ins.

Compound: COC(=O)[C@H](CC(C)C)NC(=O)[C@@H](NC(=O)C(=O)N[C@H](C(=O)N[C@@H](CC(C)C)C(=O)OC)c1ccccc1)c1ccccc1 [4b, (S,S)-N,N'-Oxalyl-bis(phenylglycyl-leucine methyl ester)]
- Gelator effectiveness (Geff) [4, 6]: sol.
- Gelator effectiveness (Geff) [4, 7]: cr
- Gelator effectiveness (Geff) [4, 8]: cr.
- Gelator effectiveness (Geff) [4, 9]: 0.2+0.5 mL
- Gelator effectiveness (Geff) [4, 10]: ins.
- Gelator effectiveness (Geff) [4, 11]: sol.
- Gelator effectiveness (Geff) [4, 12]: 4.8 mL
- Gelator effectiveness (Geff) [4, 13]: 1.1 mL
- Gelator effectiveness (Geff) [4, 14]: 0.9 mL
- Gelator effectiveness (Geff) [4, 15]: 1.25 mL

Compound: O=C(N[C@@H](Cc1ccccc1)C(=O)N[C@@H](Cc1ccccc1)C(=O)O)C(=O)N[C@@H](Cc1ccccc1)C(=O)N[C@@H](Cc1ccccc1)C(=O)O [5a, (S,S)-N,N'-Oxalyl-bis(phenylalanyl-phenylalanine)]
- solubility in water [1]: insoluble

Compound: NC(=O)[C@H](Cc1ccccc1)NC(=O)[C@H](Cc1ccccc1)NC(=O)C(=O)N[C@@H](Cc1ccccc1)C(=O)N[C@@H](Cc1ccccc1)C(N)=O [5c, bis(PhePheNH2)]
- Gelation effectiveness (Geff) [4, 16]: 2.7+3.0 mL
- Gelation effectiveness (Geff) [4, 17]: 1.3+1.6 mL
- Gelation effectiveness (Geff) [4, 18]: 2.0 mL
- Gelation effectiveness (Geff) ([3]; CH2Cl2): ins.
- Gelation effectiveness (Geff) ([3]; CH3CN): ins.
- Gelation effectiveness (Geff) ([3]; EtOH): ins.
- Gelation effectiveness (Geff) ([3]; H2O): ins.
- Gelation effectiveness (Geff) ([3]; THF): ins.
- Gelation effectiveness (Geff) ([3]; p-xylene): ins.
- Gelation effectiveness (Geff) ([3]; toluene): ins.
- Gelation effectiveness (Geff) ([3]; ±2-octanol): ins.

Compound: CC(C)C[C@H](NC(=O)[C@H](CC(C)C)NC(=O)C(=O)N[C@@H](CC(C)C)C(=O)N[C@@H](CC(C)C)C(N)=O)C(N)=O [(S,S)-1c, bis(LeuLeuNH2)]
- Gelation effectiveness (Geff) ([4]; max. volume immobilized by 10 mg gelator, CH2Cl2 + DMSO (footnote a), volume + volume): 1.05+0.2^a mL
- Gelation effectiveness (Geff) [4, 16]: 0.45+0.75 mL
- Gelation effectiveness (Geff) [4, 17]: 0.55+1.4 mL
- Gelation effectiveness (Geff) [4, 18]: 7.3 mL
- Gelation effectiveness (Geff) ([4]; max. volume immobilized by 10 mg gelator, toluene + DMSO (footnote a), volume + volume): 1.05+0.2^a mL
- Gelation effectiveness (Geff) ([2]; EtOH): cr.
- Gelation effectiveness (Geff) ([3]; CH3CN): ins.
- Gelation effectiveness (Geff) ([3]; H2O): ins.
- Gelation effectiveness (Geff) ([3]; THF): ins.
- Gelation effectiveness (Geff) ([3]; p-xylene): ins.
- Gelation effectiveness (Geff) ([3]; ±2-octanol): ins.

Compound: (S,R)-N,N'-Oxalyl-bis(leucyl-leucine methyl ester) [(S,R)-1b]
- Gelator effectiveness (Geff) [4, 6]: sol.
- Gelator effectiveness (Geff) [4, 7]: cr.
- Gelator effectiveness (Geff) ([4]; max. volume immobilized by 10 mg gelator, EtOH, Table 2): cr.
- Gelator effectiveness (Geff) [4, 8]: 11.5+11.7 mL
- Gelator effectiveness (Geff) [4, 9]: 9.7+10.0 mL
- Gelator effectiveness (Geff) [4, 10]: ins.
- Gelator effectiveness (Geff) [4, 11]: cr.
- Gelator effectiveness (Geff) [4, 12]: 0.8 mL
- Gelator effectiveness (Geff) [4, 13]: 0.5 mL
- Gelator effectiveness (Geff) [4, 14]: 0.2 mL
- Gelator effectiveness (Geff) [4, 15]: 0.15 mL
- Gelator effectiveness (Geff) ([4]; max. volume immobilized by 10 mg gelator, ±2-octanol, Table 2): cr.
- minimal gelation concentration (MGC) ([4]; toluene, experimentally determined): 0.116 mol dm^−3
- second saturation point of concentration induced 1H NMR shifts ([5]; toluene-d8): 0.12 mol dm^−3
- saturation point of concentration induced 1H NMR shifts (self-assembly equilibrium) ([5]; toluene-d8, concentration range 0.001–0.1 mol dm^−3, first or only saturation point): around 0.03 mol dm^−3

Compound: bis(Leu)oxalamide [reference compound]
- Gelator effectiveness (Geff) ([4]; max. volume immobilized by 10 mg gelator, CH2Cl2 + DMSO (footnote a), given as volume + volume, Table 1): 1.5+0.05^a mL
- Gelator effectiveness (Geff) ([4]; max. volume immobilized by 10 mg gelator, CH3CN, Table 1): 0.95 mL
- Gelator effectiveness (Geff) ([4]; max. volume immobilized by 10 mg gelator, EtOH, Table 1): 1.5 mL
- Gelator effectiveness (Geff) ([4]; max. volume immobilized by 10 mg gelator, H2O/DMF mixture, given as volume + volume, Table 1): cr.
- Gelator effectiveness (Geff) ([4]; max. volume immobilized by 10 mg gelator, H2O/DMSO mixture, given as volume + volume, Table 1): 0.8+0.4 mL
- Gelator effectiveness (Geff) ([4]; max. volume immobilized by 10 mg gelator, THF, Table 1): 0.4 mL
- Gelator effectiveness (Geff) ([4]; max. volume immobilized by 10 mg gelator, decalin, Table 1): 0.2 mL
- Gelator effectiveness (Geff) ([4]; max. volume immobilized by 10 mg gelator, p-xylene, Table 1): 2.45 mL
- Gelator effectiveness (Geff) ([4]; max. volume immobilized by 10 mg gelator, tetralin, Table 1): 3.0 mL
- Gelator effectiveness (Geff) ([4]; max. volume immobilized by 10 mg gelator, toluene, Table 1): 1.95 mL
- Gelator effectiveness (Geff) ([4]; max. volume immobilized by 10 mg gelator, ±2-octanol, Table 1): 10.95 mL
- Gelator effectiveness (Geff) ([4]; maximal volume of solvent immobilized by 10 mg of gelator, solvent H2O, Table 1): 0.4 mL
